# Test results: patent publication US10828315B2 (Madrigal Pharmaceuticals, Inc., priority 2013, dated 2020)
# Assays:
# HER2 [1] = experiment: HER2 degradation assay with BT-474 cell line (Example 12, FACS); type: cell-based, human
# HER2 [2] = experiment: HER2 degradation in BT-474 cells (Example 3, Methods 1 and 2); type: cell-based, human
# Excerpt: This example illustrates how a HER2 degradation assay may be used as a test to determine and select Hsp90-targeting moieties suitable for use in SDC-TRAPs of the invention, and further illustrates the ability of SDC-TRAPs to target cells preferentially expressing Hsp90. Such a test may further be used to determine the Hsp90 binding ability of SDC-TRAPs of the invention, as well as through competitive binding assays and cell-based Hsp90 client protein degradation assays known in the art.
# After treatment, each cytoplasmic sample is prepared from 1×10^6 cells by incubation of cell lysis buffer (#9803, Cell Signaling Technology) on ice for 10 minutes. The resulting supernatant used as the cytosol fractions is dissolved with sample buffer for SDS-PAGE and run on a SDS-PAGE gel, blotted onto a nitrocellulose membrane by using semi-dry transfer. Non-specific binding to nitrocellulose is blocked with 5% skim milk in TBS with 0.5% Tween at room temperature for 1 hour, then probed with anti-HER2/ErB2 mAb (rabbit IgG, #2242, Cell Signaling) and anti-Tubulin (T9026, Sigma) as housekeeping control protein. HRP-conjugated goat anti-rabbit IgG (H+L) and HRP-conjugated horse anti-mouse IgG (H+L) are used as secondary Ab (#7074#7076, Cell Signaling) and LumiGLO reagent, 20× Peroxide (#7003, Cell Signaling) is used for visualization. The Hsp90 client protein HER2 is degraded when cells are treated with Hsp90-targeting moieties or SDC-TRAPs of the invention.
# BT-474 cells are plated in the interior 60 wells of a 96 well black clear bottom plate (20,000 cells/well) in DMEM medium, with DMEM media in the surrounding 36 wells, and incubated at 37° C. with 5% CO2 overnight. On the second day, concentration response curve source plates are produced (10 point, 3-fold dilution of compounds in DMSO) followed by a 1:30 dilution in an intermediate dilution plate containing DMEM. Compound is transferred from the intermediate plate to the cell plate at a dilution of 1:10. The cells are then incubated at 37° C. with 5% CO2 for 24 hours.
# Cells are then fixed in 4% phosphate-buffered paraformaldehyde for 30 minutes at room temperature and then permeabilized by washing five times with 0.1% Triton X-100 in PBS for 5 minutes at room temperature on a shaker. […] Cells are washed five times with 0.1% Tween-20 in PBS for 5 minutes at room temperature on a shaker and incubated with fluorescently-labeled secondary antibody (LI-COR, #926-32211) diluted 1:1000 in blocking buffer, and DRAQ5 nuclear stain (Biostatus Limited, # DRAQ5) diluted 1:10,000, at room temperature on a shaker for 1 hour. Cells are washed 5 times with 0.1% Tween-20 in PBS for 5 minutes at room temperature on a shaker and imaged on a LI-COR Odyssey imaging station. The raw data is normalized to DRAQ5 and the HER2 EC50 is calculated using XLfit™.
# [3] = Mouse plasma stability protocol, up to 1 h (Examples 16-18); conditions: for % Remaining (1 h): % Remaining of parent after 1 h incubation in mouse plasma at 37° C. (10 μM); for % Remaining (1 h, 37° C.) / Mouse (10 μM) % Remaining 1 h (37° C.)*: mouse plasma; for Mouse (10 μM) % Remaining 1 h (37° C.)*: sum of both peaks; for Peak Area Ratio: SDC-TRAP-0063 incubated in mouse plasma
# [4] = Stability in cell culture media (Example 18); conditions: for Media (5 μM) % Remaining 1 h (37° C.)*: sum of both peaks
# Protocol: 98 μL of DMEM+10% FBS, +1% P/S, +1.5 g/L sodium bicarbonate cell culture media was mixed with 2 μL of DMSO and aliquotted into 96-well plates at 250 μL per 0, 1, 2, and 18 hour time point.
# 3×50 μL media samples in 96 were held in 96-well plates at −80° C. until the last time point was extracted. 200 μL of methanol containing IS was added and mixed by vortex at 1500 rpm for 1.5 minutes at room temperature. The samples were centrifuged at 4400 rpm for 10 minutes at 8° C.
# [5] = Artificial membrane permeability assay (PAMPA)
# Protocol: Pre-coated PAMPA plates were warmed to room temperature for at least 30 minutes prior to adding assay components.
# Stock solutions were prepared with the SDC-TRAP molecules to be tested. In order to make a working solution, either 50 μL of 100 μM Stock in DMSO+950 μL of PBS or 50 μL of 200 μM stock was added to 96 deep well plate, resulting in a 5 μM final concentration or a 10 μM final concentration, respectively. 3000 μL of the working solution containing each compound to be tested was added to the appropriate well of a donor PAMPA plate. 200 μL of PBS was added into the corresponding wells of an acceptor PAMPA plates.
# The acceptor plate was lowered onto the donor plate and allowed to incubate for five hours. After five hours, a 50 μL aliquot was removed from each well of each plate and added into a new 96 deep-well plate.
# 100 μL of methanol containing an internal standard was added to each aliquot and analyzed by LC/MS.
# In order to calculate the permeability for each SDC-TRAP molecule and the control molecules, the following formula was used:
# [6] = tested on: human urinary bladder cancer cell line RT-112; experiment: Cytotoxicity assay (CellTiter-Glo, 72 h), RT-112; type: cell-based; conditions: RT-112, 72 hours, read-out: Cytotoxicity (IC50, nM) RT-112
# Protocol: (§1) Cytotoxicity of SDC-TRAP molecules was determined in three cancer cell lines. […] 80 μL of CellTiter-Glo was added to each well, followed by room temperature incubation in the dark for 15 minutes. Cell was determined by luminescence. IC50 was calculated using XLfit™ software.
# [7] = Metabolite profiling and identification; type: in vitro ADME; design: key: —: Not detected; conditions: for Metabolite Glucuronidation: M+1 569.3; for Metabolite Hydroxylation + glucuronidatiom: M+1 585.3
# Excerpt: Metabolite Profiling and Identification: Metabolite profiling/identification for SDC-TRAP-0063 (M+1:880.3)
# [8] = tested on: human breast cancer cell line BT-474; experiment: Cytotoxicity assay (CellTiter-Glo, 72 h), BT-474; type: cell-based; conditions: BT-474, 72 hours, read-out: Cytotoxicity (IC50, nM) BT-474
# Protocol: as §1
# [9] = mouse, in vivo
# [10] = tested on: human urinary bladder cancer cell line SW780; experiment: Cytotoxicity assay (CellTiter-Glo, 72 h), SW780; type: cell-based; conditions: SW780, 72 hours, read-out: Cytotoxicity (IC50, nM) SW-780
# Protocol: as §1
smiles,measurement,setting,value
"CCc1c2c(nc3ccc(O)cc13)-c1cc3c(c(=O)n1C2)COC(=O)C3(CC)OC(=O)N(C)CCn1ccc2cc(-n3c(O)nnc3-c3cc(C(C)C)c(O)cc3O)ccc21 (centres unmarked) [SDC-TRAP-0038, 4,11-diethyl-9-hydroxy-3,14-dioxo-3,4,12,14-tetrahydro-1H-pyrano[3′,4′:6,7]indolizino[1,2-b]quinolin-4-yl (2-(5-(3-(2,4-dihydroxy-5-isopropylphenyl)-5-hydroxy-4H-1,2,4-triazol-4-yl)-1H-indol-1-yl)ethyl)(methyl)carbamate]",IC50,HER2 [1],> 5000 nM
same,IC50,HER2 [2],> 5000 nM
"CC(C)c1cc(-c2nnc(O)n2-c2ccc3c(ccn3CCOCCN(C)C(=O)CCCc3nc4cc(N(CCCl)CCCl)ccc4n3C)c2)c(O)cc1O [SDC-TRAP-0040, 4-(5-(bis(2-chloroethyl)amino)-1-methyl-1H-benzo[d]imidazol-2-yl)-N-(2-(2-(5-(3-(2,4-dihydroxy-5-isopropylphenyl)-5-hydroxy-4H-1,2,4-triazol-4-yl)-1H-indol-1-yl)ethoxy)ethyl)-N-methylbutanamide]",IC50,"HER2 [1]; BT-474 cells, overnight",4740 nM
same,IC50,HER2 [2],4740 nM
"CCc1c2c(nc3ccc(O)cc13)-c1cc3c(c(=O)n1C2)COC(=O)C3(CC)OC(=O)N1CCN(Cc2ccc(-n3c(O)nnc3-c3cc(C(C)C)c(O)cc3O)cc2)CC1 (centres unmarked) [SDC-TRAP-0047, 4,11-diethyl-9-hydroxy-3,14-dioxo-3,4,12,14-tetrahydro-1H-pyrano[3′,4′:6,7]indolizino[1,2-b]quinolin-4-yl 4-(4-(3-(2,4-dihydroxy-5-isopropylphenyl)-5-hydroxy-4H-1,2,4-triazol-4-yl)benzyl)piperazine-1-carboxylate]",% Remaining (1 h),[3],88.9%
same,"% Remaining (1 h, 37° C.)",[3]; 1 h,89%
same,IC50,HER2 [1],875 nM
same,IC50,HER2 [2],875 nM
"CCc1c2c(nc3ccc(O)cc13)-c1cc3c(c(=O)n1C2)COC(=O)C3(CC)OC(=O)CCC(=O)N1CCN(Cc2ccc(-n3c(O)nnc3-c3cc(C(C)C)c(O)cc3O)cc2)CC1 (centres unmarked) [SDC-TRAP-0043, 4,11-diethyl-9-hydroxy-3,14-dioxo-3,4,12,14-tetrahydro-1H-pyrano[3′,4′:6,7]indolizino[1,2-b]quinolin-4-yl 4-(4-(4-(3-(2,4-dihydroxy-5-isopropylphenyl)-5-hydroxy-4H-1,2,4-triazol-4-yl)benzyl)piperazin-1-yl)-4-oxobutanoate]",IC50,HER2 [1],2140 nM
same,IC50,HER2 [2],2140 nM
"CCc1c2c(nc3ccc(OC(=O)N(C)CCCCN4CCN(Cc5ccc(-n6c(O)nnc6-c6cc(C(C)C)c(O)cc6O)cc5)CC4)cc13)-c1cc3c(c(=O)n1C2)COC(=O)C3(O)CC (centres unmarked) [SDC-TRAP-0044, 4,11-diethyl-4-hydroxy-3,14-dioxo-3,4,12,14-tetrahydro-1H-pyrano[3′,4′:6,7]indolizino[1,2-b]quinolin-9-yl (4-(4-(4-(3-(2,4-dihydroxy-5-isopropylphenyl)-5-hydroxy-4H-1,2,4-triazol-4-yl)benzyl)piperazin-1-yl)butyl)(methyl)carbamate]",% Remaining (1 h),[3],60.6%
same,"% Remaining (1 h, 37° C.)",[3]; 1 h,61%
same,Mouse (10 μM) % Remaining 1 h (37° C.)*,[3],61%
same,IC50,HER2 [1],602 nM
same,IC50,HER2 [2],602 nM
same,Media (5 μM) % Remaining 19 h (37° C.),[4],41%
same,Media (5 μM) % Remaining 1 h (37° C.)*,[4],50%
"CCc1c2c(nc3ccc(O)cc13)-c1cc3c(c(=O)n1C2)COC(=O)C3(CC)OC(=O)CCC(=O)N1CCC(Cc2ccc(-n3c(O)nnc3-c3cc(C(C)C)c(O)cc3O)cc2)CC1 (centres unmarked) [SDC-TRAP-0042, 4,11-diethyl-9-hydroxy-3,14-dioxo-3,4,12,14-tetrahydro-1H-pyrano[3′,4′:6,7]indolizino[1,2-b]quinolin-4-yl 4-(4-(4-(3-(2,4-dihydroxy-5-isopropylphenyl)-5-hydroxy-4H-1,2,4-triazol-4-yl)benzyl)piperidin-1-yl)-4-oxobutanoate]",% Remaining (1 h),[3],73.9%
same,"% Remaining (1 h, 37° C.)",[3]; 1 h,74%
same,IC50,HER2 [1],1060 nM
same,IC50,HER2 [2],1060 nM
"CCc1c2c(nc3ccc(O)cc13)-c1cc3c(c(=O)n1C2)COC(=O)[C@]3(O)CC [SN-38, reference compound]",Mass Retention,"[5]; incubation 5 h, first table",38.2%
same,Mass Retention,"[5]; same protocol, second table",46.6%
same,% Remaining (1 h),[3],63.5%
same,Peak Area Ratio,[3]; 0 h,0.0616
same,Peak Area Ratio,[3]; 0.5 h,4.13
same,Peak Area Ratio,[3]; 1 h,4.46
same,Peak Area Ratio,[3]; […],1.37
same,Mouse (10 μM) % Remaining 1 h (37° C.)*,[3],64%
same,IC50,[6],< 10 nM
same,Metabolite Glucuronidation,[7]; Hepatocytes Dog,√
same,Metabolite Hydroxylation + glucuronidatiom,[7]; Hepatocytes Dog,—
same,Metabolite Glucuronidation,[7]; Hepatocytes Human,√
same,Metabolite Hydroxylation + glucuronidatiom,[7]; Hepatocytes Human,√
same,Metabolite Glucuronidation,[7]; Hepatocytes Monkey,√
same,Metabolite Hydroxylation + glucuronidatiom,[7]; Hepatocytes Monkey,√
same,Metabolite Glucuronidation,[7]; Hepatocytes Mouse,√
same,Metabolite Hydroxylation + glucuronidatiom,[7]; Hepatocytes Mouse,—
same,Metabolite Glucuronidation,[7]; Hepatocytes Rat,√
same,Metabolite Hydroxylation + glucuronidatiom,[7]; Hepatocytes Rat,—
same,IC50,[8],> 10000 nM
same,Plasma Conc.,[9],BQL
same,Tumor Conc.,[9],BQL
same,Media (5 μM) % Remaining 19 h (37° C.),[4],52%
same,Media (5 μM) % Remaining 1 h (37° C.)*,[4],82%
same,IC50,[10],38 nM
"CCc1c2c(nc3ccc(O)cc13)-c1cc3c(c(=O)n1C2)COC(=O)C3(CC)OC(=O)N(C)CCOCCn1ccc2cc(-n3c(O)nnc3-c3cc(C(C)C)c(O)cc3O)ccc21 (centres unmarked) [SDC-TRAP-0037, 4,11-diethyl-9-hydroxy-3,14-dioxo-3,4,12,14-tetrahydro-1H-pyrano[3′,4′:6,7]indolizino[1,2-b]quinolin-4-yl (2-(2-(5-(3-(2,4-dihydroxy-5-isopropylphenyl)-5-hydroxy-4H-1,2,4-triazol-4-yl)-1H-indol-1-yl)ethoxy)ethyl)(methyl)carbamate]",% Remaining (1 h),[3],95.3%
same,"% Remaining (1 h, 37° C.)",[3]; 1 h,95%
same,Mouse (10 μM) % Remaining 1 h (37° C.)*,[3],95%
same,IC50,HER2 [1],2110 nM
same,IC50,HER2 [2],2110 nM
same,Media (5 μM) % Remaining 19 h (37° C.),[4],6%
same,Media (5 μM) % Remaining 1 h (37° C.)*,[4],67%
